Results taken from US20200270588A1, “GLUCOSYL TRANSFERASE POLYPEPTIDES AND METHODS OF USE” (Syngenta Participations AG, priority 2017, published 2020).

Assays:
Format in all cases: biochemical
[1] = target: T1, SEQ ID NO 17, zmBX9 S117V, M279F, A334K mutant (Zea mays, UniProt B4G072, A334K/M279F/S117V); experiment: UDP-Glo glucosyl transferase assay, purified enzyme; conditions: for Activity: herbicide mM: V 0.300, VI 0.250, VII 0.210, IV, VIII, XI, XXI, XX, XVIII, XVI, XV, XIV 0.200, others 1.000
T1 construct: polypeptides were the C-terminally his-tagged; His tag (C); made in house
Method: (§1) Glucosyl transferase activity is assayed via measurement of acceptor substrate-dependent production of UDP from ultrapure UDP-glucose using the Promega UDP-Glo™ method and according to the manufacturer's instructions. Assays are run in 96 well microtiter plates.
(§2) Enzyme, typically at a stock concentration of ˜2 mg/ml is diluted to an appropriate concentration in 50 mM K^+ Hepes buffer at pH7.5 containing 0.5 mg/mL bovine serum albumin (BSA) and 5 ul aliquots of this diluted enzyme added to each well of a Perkin Elmer white ½ area 96 well plate. […] Assays are run for an appropriate time (usually 10 to 60 min) so that the amount of UDP formed lies within the most nearly linear part of the UDP standard curve and are stopped with the addition and mixing of 25 ul UDP-Glo™ detection reagent (prepared as described below). Plates are then incubated at room temperature for 60 minutes and then read in a luminescence plate reader (Perkin Elmer Envision 2130 Multilabel Reader). A UDP standard curve is run alongside each set of assays and reagent blank control assays run with DMSO in place of test herbicide. Typically, 300 pmol of UDP corresponds to a Relative Luminescence Unit (RLU) reading of about 1.5E7 and the response curve between 0 and 600 pmol is fitted to a polynomial function (see for example FIG. 2).
(§3) The UDP-Glo™ reagents are made up and used according to the manufacturer's instructions. Thus, Nucleotide Detection Buffer and ATP are combined to make nucleotide detection reagent (NDR) dispensed into aliquots and frozen to be freshly thawed before use.
(§4) Km and kcat values in respect of UDP-glucose are derived by carrying out experiments to measure initial rates over a suitable range of concentrations of UDP glucose out at a fixed near saturating concentration of acceptor substrate. Best fit values of kcat, Km and kcat/Km are obtained by direct fitting of the data to the Michaelis-Menten equation using Graphpad Prism™ software.
(§5) Variants of C-terminally his tagged SEQ ID No:1 (w/t bx9 from Zea mays), exemplified as SEQ ID 16-30, were cloned, purified and assayed as described in Example 1. FIG. 4 depicts the data from some experiments to determine the kinetic parameters of some of these variants in respect of herbicide VI and table 12 summarizes the estimates of kinetic parameters obtained from further such experiments in respect of a range of herbicides.
(§6) Table 13 summarizes the results obtained from assays, run as described in Example 1, using a variety of alcohol and aminal PSII herbicides as substrates of the Zea mays bx9 w/t (i.e. C-terminally his tagged SEQ ID no 1) and various mutants of the same, selected from SEQ ID NO: 16-30). All of these proteins were C-terminally his-tagged, expressed and purified as described in Example 1. Assays were run and analyzed as described in example 1. It is seen that various of the mutations herein and combinations thereof led to significant improvements (over the w/t bx9 protein) in catalytic activity versus various of the herbicides and that these improvements are often of sufficient magnitude to be useful for conferring improved herbicide tolerance upon crop. This is especially the case given that even the unmutated w/t bx9 enzyme which has only modest glucosyl transferase activity (for example against compounds V and VI) was nevertheless adequately active to confer significant herbicide tolerance in the glass house (as shown in example 9) even without mutational improvement. It is also seen that particular mutations can lead to very much improved activity in respect of some chemistries but not to others but that, overall, there is at least one variant within the scope of the current invention that provides significant and useful improvement in tolerance to each of the chemistries tested.

[2] = target: T2, SEQ ID NO 21, mutant of Zea mays bx9 glucosyl transferase (Zea mays, UniProt B4G072, A334K/F21Y/L194V/M279F/S117V); experiment: as above; conditions: lower block, concentration printed only in upper block: V 0.300, VII 0.210; IV, VIII, XI, XXI, XX, XVIII, XVI, XV, XIV 0.200; others 1.000 mM
T2 construct: His tag (C); made in house
Method: as §1, §2, §3, §4, §5, §6

[3] = target: T3, SEQ ID NO 22, mutant of Zea mays bx9 glucosyl transferase (Zea mays, UniProt B4G072, A334K/F21Y/M279F/S117V/T220P); experiment: as above; conditions: lower block, concentration printed only in upper block: V 0.300, VII 0.210; IV, VIII, XI, XXI, XX, XVIII, XVI, XV, XIV 0.200; others 1.000 mM
T3 construct: His tag (C); made in house
Method: as §1, §2, §3, §4, §5, §6

[4] = target: T4, SEQ ID NO 19, mutant of Zea mays bx9 glucosyl transferase (Zea mays, UniProt B4G072, A281K/A334K/L194V/M279F/S117V); experiment: as above; conditions: herbicide mM: V 0.300, VI 0.250, VII 0.210; IV, VIII, XI, XXI, XX, XVIII, XVI, XV, XIV 0.200; others 1.000
T4 construct: His tag (C); made in house
Method: as §1, §2
(§7) The UDP-Glo™ reagents are made up and used according to the manufacturer's instructions. Thus, Nucleotide Detection Buffer and ATP are combined to make nucleotide detection reagent (NDR) dispensed into aliquots and frozen to be freshly thawed before use. […]
as §6

[5] = target: T5, SEQ ID NO 23, mutant of Zea mays bx9 glucosyl transferase (Zea mays, UniProt B4G072, A334K/F21Y/L194C/M279F/S117V); experiment: as above; conditions: lower block, concentration printed only in upper block: V 0.300, VII 0.210; IV, VIII, XI, XXI, XX, XVIII, XVI, XV, XIV 0.200; others 1.000 mM
T5 construct: His tag (C); made in house
Method: as §1, §2, §7, §6

[6] = target: T6, Zea mays bx9 glucosyl transferase (C-terminally his tagged SEQ ID NO: 1) (Zea mays, UniProt B4G072); experiment: as above; conditions: for Activity: herbicide mM: V 0.300, VI 0.250, VII 0.210, IV, VIII, XI, XXI, XX, XVIII, XVI, XV, XIV 0.200, others 1.000
T6 construct: His tag (C); made in house; host or cells: E. coli BL21 (DE3), pET24a
T6 sequence (B4G072 1-462): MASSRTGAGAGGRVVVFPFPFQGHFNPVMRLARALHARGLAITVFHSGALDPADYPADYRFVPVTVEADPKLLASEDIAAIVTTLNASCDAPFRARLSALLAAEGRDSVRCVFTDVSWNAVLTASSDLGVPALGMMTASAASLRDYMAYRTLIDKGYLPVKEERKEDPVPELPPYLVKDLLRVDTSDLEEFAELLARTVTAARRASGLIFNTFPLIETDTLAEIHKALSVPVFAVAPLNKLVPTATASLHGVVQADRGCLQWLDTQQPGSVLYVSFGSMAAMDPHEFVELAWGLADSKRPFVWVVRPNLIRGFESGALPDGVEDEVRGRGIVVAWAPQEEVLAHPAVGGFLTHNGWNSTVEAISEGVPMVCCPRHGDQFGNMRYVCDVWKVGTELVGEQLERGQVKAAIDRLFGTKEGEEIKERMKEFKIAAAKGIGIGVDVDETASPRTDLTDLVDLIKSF
Method: as §1, §2, §3, §4

[7] = target: T7, SEQ ID NO 18, mutant of Zea mays bx9 glucosyl transferase (Zea mays, UniProt B4G072, A281K/A334K/F21Y/M279F/S117V); experiment: as above; conditions: herbicide mM: V 0.300, VI 0.250, VII 0.210; IV, VIII, XI, XXI, XX, XVIII, XVI, XV, XIV 0.200; others 1.000
T7 construct: His tag (C); made in house
Method: as §1, §2, §7, §6

[8] = target: T8, SEQ ID NO 20, mutant of Zea mays bx9 glucosyl transferase (Zea mays, UniProt B4G072, A281K/A334K/F21Y/L194V/M279F/S117V); conditions: lower block, concentration printed only in upper block: V 0.300, VII 0.210; IV, VIII, XI, XXI, XX, XVIII, XVI, XV, XIV 0.200; others 1.000 mM
T8 construct: His tag (C); made in house
Method: as §1
as §2, with “herbicide.” for “herbicide. Typically, 300 pmol of UDP corresponds to a Relative Luminescence Unit (RLU) reading of about 1.5E7 and the response curve between 0 and 600 pmol is fitted to a polynomial function (see for example FIG. 2).”
as §3, §4
All of these proteins were C-terminally his-tagged, expressed and purified as described in Example 1. Assays were run and analyzed as described in example 1.

| SMILES | Activity [1] [pmol/sec/pmol enzyme] | Activity [2] [pmol/sec/pmol enzyme] | Activity [3] [pmol/sec/pmol enzyme] | Activity [4] [pmol/sec/pmol enzyme] | Activity [5] [pmol/sec/pmol enzyme] | Activity [6] [pmol/sec/pmol enzyme] | Activity [7] [pmol/sec/pmol enzyme] | Activity [8] [pmol/sec/pmol enzyme] | kcat ([6]; 0.5 mM UDP-glucose, 25 C, pH 7.5, DMSO reagent blank as control) [s⁻¹] | increase in activity over bx9 w/t protein [1] |
| --- | --- | --- | --- | --- | --- | --- | --- | --- | --- | --- |
| CON1C(=O)N(c2cc(C(F)(F)F)c(C)cn2)C(O)[C@@H]1C (some centres unmarked) [XV] | 0.833 | 1.711 | 1.530 | 1.391 | 1.641 | – | – | – | – | – |
| C[C@@H]1C(=O)N(c2noc(C(C)(C)C)c2C#N)C(O)[C@H]1C (some centres unmarked) [XXVI] | 0.020 | 0.040 | 0.073 | 0.095 | 0.034 | −0.001 | 0.051 | 0.143 | – | – |
| CN1CC(O)N(c2cc(C(C)(C)C)on2)C1=O (centres unmarked) [XXII] | 0.023 | 0.015 | 0.101 | 0.080 | 0.020 | 0.000 | 0.186 | 0.120 | – | – |
| CON1C(=O)N(c2cc(C(F)(F)F)c(Cl)cn2)C(O)C1C (centres unmarked) [XXI] | 0.919 | 1.827 | 1.714 | 1.534 | 1.746 | 0.000 | 1.524 | 1.457 | 0.0001 | – |
| CN1CC(O)N(c2cc(C(C)(C)C)ncn2)C1=O (centres unmarked) [IV] | 0.019 | 0.008 | 0.099 | 0.053 | 0.023 | 0.000 | 0.145 | 0.079 | – | – |
| CN1CC(O)N(c2cc(C(F)(F)F)n(C)n2)C1=O (centres unmarked) [XII] | 0.018 | – | – | – | – | 0.007 | – | – | – | – |
| C[C@H]1C(O)N(c2cc(C(F)(F)F)ccn2)C(=O)N1C (some centres unmarked) [XXIV] | 0.528 | 1.154 | 0.908 | 1.358 | 0.816 | 0.001 | 0.982 | 1.462 | – | – |
| C[C@H]1C(=O)N(c2noc(C(C)(C)C)c2C#N)C(O)[C@@H]1C (some centres unmarked) [XXIII] | 0.014 | 0.034 | 0.067 | 0.072 | 0.021 | −0.003 | 0.089 | 0.119 | – | – |
| CN1CC(O)N(c2cc(C(C)(C)C)c(Cl)nn2)C1=O (centres unmarked) [III] | 0.032 | 0.020 | 0.144 | 0.097 | 0.066 | 0.001 | 0.170 | 0.144 | – | – |
| COC1=C(C)C(O)N(c2cc(C(C)(C)C)ncn2)C1=O (centres unmarked) [X] | – | – | – | 0.102 | – | −0.001 | – | 0.137 | – | – |
| CSc1nnc(C(C)(C)C)c(=O)n1N [metribuzin] | – | – | – | – | – | – | – | – | – | 1.3-1.5 × |
| CC1CC(O)N(c2ncc(C(F)(F)F)s2)C1=O (centres unmarked) [XVI] | 0.073 | – | 0.285 | – | – | – | 0.359 | 0.687 | – | – |
| C[C@H]1C(O)N(c2cc(C(C)(C)F)ncn2)C(=O)N1C (some centres unmarked) [XIV] | 0.037 | – | – | – | 0.196 | −0.001 | – | 0.411 | – | – |
| C[C@@H]1C(O)N(c2cc(C(C)(C)C)on2)C(=O)N1C (some centres unmarked) [VII] | – | – | 0.042 | – | – | 0.000 | 0.087 | 0.049 | – | – |
